Columns and labels:
HCV replicon genotype 1a = assay: microbe, parasite or virus in culture; assay type: cell-based, hepatitis C virus (HCV); settings: Hepatitis C virus, 96 h, read-out: 1a IC50 (nM)
HCV replicon genotype 1b = assay: microbe, parasite or virus in culture; assay type: cell-based, hepatitis C virus (HCV); settings: Hepatitis C virus, 96 h, read-out: 1b IC50 (nM)

Compound: CNC(=O)c1c(-c2ccc(F)cc2)oc2cc(N(C)S(C)(=O)=O)c(-c3ccc4nnn(Cc5ccc(F)cc5OC)c(=O)c4c3)cc12 [Compound 47, 5-[3-(4-fluoro-2-methoxybenzyl)-4-oxo-3,4-dihydro-1,2,3-benzotriazin-6-yl]-2-(4-fluorophenyl)-N-methyl-6-[methyl(methylsulfonyl)amino]-1-benzofuran-3-carboxamide]
- IC50 (HCV replicon genotype 1a): 20.2 nM
- IC50 (HCV replicon genotype 1b): 20.6 nM

Compound: CNC(=O)c1c(-c2ccc(F)cc2)oc2cc(N(C)S(C)(=O)=O)c(-c3ccc4nnn(Cc5ccc(F)cn5)c(=O)c4c3)cc12 [Compound 48, 2-(4-fluorophenyl)-5-{3-[(5-fluoropyridin-2-yl)methyl]-4-oxo-3,4-dihydro-1,2,3-benzotriazin-6-yl}-N-methyl-6-[methyl(methylsulfonyl)amino]-1-benzofuran-3-carboxamide]
- IC50 (HCV replicon genotype 1a): 6.93 nM
- IC50 (HCV replicon genotype 1b): 5.97 nM

Compound: CNC(=O)c1c(-c2ccc(F)cc2)oc2cc(N(C)S(C)(=O)=O)c(-c3ccc4ncn(Cc5ccccc5)c(=O)c4c3)cc12 [Compound 49, 5-(3-benzyl-4-oxo-3,4-dihydroquinazolin-6-yl)-2-(4-fluorophenyl)-N-methyl-6-(N-methylmethylsulfonamido)benzofuran-3-carboxamide]
- IC50 (HCV replicon genotype 1a): 6.25 nM
- IC50 (HCV replicon genotype 1b): 10.2 nM

Compound: CNC(=O)c1c(-c2ccc(F)cc2)oc2cc(N(C)S(C)(=O)=O)c(-c3ccc4ncn([C@H](C)c5ccc(F)cc5)c(=O)c4c3)cc12 [Compound 50, 2-(4-fluorophenyl)-5-{3-[(1R)-1-(4-fluorophenyl)ethyl]-4-oxo-3,4-dihydroquinazolin-6-yl}-N-methyl-6-[methyl(methylsulfonyl)amino]-1-benzofuran-3-carboxamide]
- IC50 (HCV replicon genotype 1a): 3.18 nM
- IC50 (HCV replicon genotype 1b): 4.23 nM

Compound: CNC(=O)c1c(-c2ccc(F)cc2)oc2cc(N(C)S(C)(=O)=O)c(-c3ccc4ncn(Cc5ccc(F)cc5OC)c(=O)c4c3)cc12 [Compound 51, 5-[3-(4-fluoro-2-methoxybenzyl)-4-oxo-3,4-dihydroquinazolin-6-yl]-2-(4-fluorophenyl)-N-methyl-6-[methyl(methylsulfonyl)amino]-1-benzofuran-3-carboxamide]
- IC50 (HCV replicon genotype 1a): 8.98 nM
- IC50 (HCV replicon genotype 1b): 2.35 nM

Compound: CNC(=O)c1c(-c2ccc(F)cc2)oc2cc(N(C)S(C)(=O)=O)c(-c3ccc4ncn(Cc5ccc(F)cn5)c(=O)c4c3)cc12 [Compound 52, 2-(4-fluorophenyl)-5-{3-[(5-fluoropyridin-2-yl)methyl]-4-oxo-3,4-dihydroquinazolin-6-yl}-N-methyl-6-[methyl(methylsulfonyl)amino]-1-benzofuran-3-carboxamide]
- IC50 (HCV replicon genotype 1a): 6.37 nM
- IC50 (HCV replicon genotype 1b): 2.11 nM

Compound: CNC(=O)c1c(-c2ccc(F)cc2)oc2cc(N(C)S(C)(=O)=O)c(-c3ccc4nc(COC)n(Cc5ccc(F)cc5)c(=O)c4c3)cc12 [Compound 53, 5-(3-(4-fluorobenzyl)-2-(methoxymethyl)-4-oxo-3,4-dihydroquinazolin-6-yl)-2-(4-fluorophenyl)-N-methyl-6-(N-methylmethylsulfonamido)benzofuran-3-carboxamide]
- IC50 (HCV replicon genotype 1a): 2.57 nM
- IC50 (HCV replicon genotype 1b): 2.45 nM

Compound: CNC(=O)c1c(-c2ccc(F)cc2)oc2cc(N(C)S(C)(=O)=O)c(-c3ccc4nc(CNC(C)=O)n(Cc5ccc(F)cc5)c(=O)c4c3)cc12 [Compound 54, 5-{2-[(acetylamino)methyl]-3-(4-fluorobenzyl)-4-oxo-3,4-dihydroquinazolin-6-yl}-2-(4-fluorophenyl)-N-methyl-6-[methyl(methylsulfonyl)amino]-1-benzofuran-3-carboxamide]
- IC50 (HCV replicon genotype 1a): 2.34 nM
- IC50 (HCV replicon genotype 1b): 2.73 nM

Compound: CNC(=O)c1c(-c2ccc(F)cc2)oc2cc(N(C)S(C)(=O)=O)c(-c3ccc4nc(C)n(Cc5ccc(F)cc5)c(=O)c4c3)cc12 [Compound 55, 5-[3-(4-fluorobenzyl)-2-methyl-4-oxo-3,4-dihydroquinazolin-6-yl]-2-(4-fluorophenyl)-N-methyl-6-[methyl(methylsulfonyl)amino]-1-benzofuran-3-carboxamide]
- IC50 (HCV replicon genotype 1a): 1.93 nM
- IC50 (HCV replicon genotype 1b): 2.42 nM

Compound: CNC(=O)c1c(-c2ccc(F)cc2)oc2cc(N(C)S(C)(=O)=O)c(-c3ccc4nc(C)n([C@H](C)c5ccc(F)cc5)c(=O)c4c3)cc12 [Compound 57, (R)-2-(4-fluorophenyl)-5-(3-(1-(4-fluorophenyl)ethyl)-2-methyl-4-oxo-3,4-dihydroquinazolin-6-yl)-N-methyl-6-(N-methylmethylsulfonamido)benzofuran-3-carboxamide]
- IC50 (HCV replicon genotype 1a): 9.65 nM
- IC50 (HCV replicon genotype 1b): 9.82 nM

Compound: CNC(=O)c1c(-c2ccc(F)cc2)oc2cc(N(C)S(C)(=O)=O)c(-c3ccc4nc(C)n(Cc5ccc(F)cc5OC)c(=O)c4n3)cc12 [Compound 63, 5-(3-(4-fluoro-2-methoxybenzyl)-2-methyl-4-oxo-3,4-dihydropyrido[3,2-d]pyrimidin-6-yl)-2-(4-fluorophenyl)-N-methyl-6-(N-methylmethylsulfonamido)benzofuran-3-carboxamide]
- IC50 (HCV replicon genotype 1a): 23.7 nM
- IC50 (HCV replicon genotype 1b): 9 nM

Compound: CNC(=O)c1c(-c2ccc(F)cc2)oc2cc(N(C)S(C)(=O)=O)c(-c3ccc4nc(C)n(Cc5ccc(F)cc5F)c(=O)c4n3)cc12 [Compound 64, 5-(3-(2,4-difluorobenzyl)-2-methyl-4-oxo-3,4-dihydropyrido[3,2-d]pyrimidin-6-yl)-2-(4-fluorophenyl)-N-methyl-6-(N-methylmethylsulfonamido)benzofuran-3-carboxamide]
- IC50 (HCV replicon genotype 1a): 4.12 nM
- IC50 (HCV replicon genotype 1b): 3.63 nM

Compound: CNC(=O)c1c(-c2ccc(F)cc2)oc2cc(N(C)S(C)(=O)=O)c(-c3ccc4nc(C)n([C@@H](COC)c5ccc(F)cc5)c(=O)c4n3)cc12 [Compound 65, (R)-2-(4-fluorophenyl)-5-(3-(1-(4-fluorophenyl)-2-methoxyethyl)-2-methyl-4-oxo-3,4-dihydropyrido[3,2-d]pyrimidin-6-yl)-N-methyl-6-(N-methylmethylsulfonamido)benzofuran-3-carboxamide]
- IC50 (HCV replicon genotype 1a): 9.28 nM
- IC50 (HCV replicon genotype 1b): 2.95 nM

Compound: CNC(=O)c1c(-c2ccc(F)cc2)oc2cc(N(C)S(C)(=O)=O)c(-c3ccc4nc(C)n([C@H](CCO)c5ccc(F)cc5)c(=O)c4n3)cc12 [Compound 66, (R)-2-(4-fluorophenyl)-5-(3-(1-(4-fluorophenyl)-3-hydroxypropyl)-2-methyl-4-oxo-3,4-dihydropyrido[3,2-d]pyrimidin-6-yl)-N-methyl-6-(N-methylmethylsulfonamido)benzofuran-3-carboxamide]
- IC50 (HCV replicon genotype 1a): 7.29 nM
- IC50 (HCV replicon genotype 1b): 4.06 nM

Compound: CNC(=O)c1c(-c2ccc(F)cc2)oc2cc(N(C)S(C)(=O)=O)c(-c3ccc4nc(C)n([C@H](COC)c5ccc(F)cc5)c(=O)c4n3)cc12 [Compound 67, (S)-2-(4-fluorophenyl)-5-(3-(1-(4-fluorophenyl)-2-methoxyethyl)-2-methyl-4-oxo-3,4-dihydropyrido[3,2-d]pyrimidin-6-yl)-N-methyl-6-(N-methylmethylsulfonamido)benzofuran-3-carboxamide]
- IC50 (HCV replicon genotype 1a): 4.97 nM
- IC50 (HCV replicon genotype 1b): 3.77 nM

Compound: CNC(=O)c1c(-c2ccc(F)cc2)oc2cc(N(C)S(C)(=O)=O)c(-c3ccc4nc(C)n(Cc5ccc(F)cc5)c(=O)c4n3)cc12 [Compound 68, 5-(3-(4-fluorobenzyl)-2-methyl-4-oxo-3,4-dihydropyrido[3,2-d]pyrimidin-6-yl)-2-(4-fluorophenyl)-N-methyl-6-(N-methylmethylsulfonamido)benzofuran-3-carboxamide]
- IC50 (HCV replicon genotype 1a): 2 nM
- IC50 (HCV replicon genotype 1b): 2.24 nM

Compound: CNC(=O)c1c(-c2ccc(F)cc2)oc2cc(N(C)S(C)(=O)=O)c(-c3cc(OC)c4nc(C)n(Cc5ccc(F)cc5)c(=O)c4c3)cc12 [Compound 69, 5-(3-(4-fluorobenzyl)-8-methoxy-2-methyl-4-oxo-3,4-dihydroquinazolin-6-yl)-2-(4-fluorophenyl)-N-methyl-6-(N-methylmethylsulfonamido)benzofuran-3-carboxamide]
- IC50 (HCV replicon genotype 1a): 6.64 nM
- IC50 (HCV replicon genotype 1b): 10.1 nM

Compound: CNC(=O)c1c(-c2ccc(F)cc2)oc2cc(N(C)S(C)(=O)=O)c(-c3cc4c(=O)n(Cc5ccc(F)cc5)nnc4cc3F)cc12 [Compound 70, 5-(7-fluoro-3-(4-fluorobenzyl)-4-oxo-3,4-dihydrobenzo[d][1,2,3]triazin-6-yl)-2-(4-fluorophenyl)-N-methyl-6-(N-methylmethylsulfonamido)benzofuran-3-carboxamide]
- IC50 (HCV replicon genotype 1a): 11.3 nM
- IC50 (HCV replicon genotype 1b): 2.61 nM

Compound: CNC(=O)c1c(-c2ccc(F)cc2)oc2cc(N(C)S(C)(=O)=O)c(-c3cc(OC)c4nnn(Cc5ccc(F)cc5)c(=O)c4c3)cc12 [Compound 71, 5-[3-(4-fluorobenzyl)-8-methoxy-4-oxo-3,4-dihydro-1,2,3-benzotriazin-6-yl]-2-(4-fluorophenyl)-N-methyl-6-[methyl(methylsulfonyl)amino]-1-benzofuran-3-carboxamide]
- IC50 (HCV replicon genotype 1a): 3.49 nM
- IC50 (HCV replicon genotype 1b): 0.782 nM

Compound: CNC(=O)c1c(-c2ccc(F)cc2)oc2cc(N(C)S(C)(=O)=O)c(-c3cc4c(=O)n(Cc5ccc(F)cc5)nnc4cc3C)cc12 [Compound 72, 5-[3-(4-fluorobenzyl)-7-methyl-4-oxo-3,4-dihydro-1,2,3-benzotriazin-6-yl]-2-(4-fluorophenyl)-N-methyl-6-[methyl(methylsulfonyl)amino]-1-benzofuran-3-carboxamide]
- IC50 (HCV replicon genotype 1a): 8.62 nM
- IC50 (HCV replicon genotype 1b): 6.47 nM

Compound: CNC(=O)c1c(-c2ccc(F)cc2)oc2cc(N(C)S(C)(=O)=O)c(-c3cc4c(=O)n(Cc5ccc(F)cc5)nnc4cc3Cl)cc12 [Compound 73, 5-[7-chloro-3-(4-fluorobenzyl)-4-oxo-3,4-dihydro-1,2,3-benzotriazin-6-yl]-2-(4-fluorophenyl)-N-methyl-6-[methyl(methylsulfonyl)amino]-1-benzofuran-3-carboxamide]
- IC50 (HCV replicon genotype 1a): 11.6 nM
- IC50 (HCV replicon genotype 1b): 7.65 nM

Compound: CNC(=O)c1c(-c2ccc(F)cc2)oc2cc(N(C)S(C)(=O)=O)c(-c3cc(C)c4nnn(Cc5ccc(F)cc5)c(=O)c4c3)cc12 [Compound 74, 5-[3-(4-fluorobenzyl)-8-methyl-4-oxo-3,4-dihydro-1,2,3-benzotriazin-6-yl]-2-(4-fluorophenyl)-N-methyl-6-[methyl(methylsulfonyl)amino]-1-benzofuran-3-carboxamide]
- IC50 (HCV replicon genotype 1a): 11.9 nM
- IC50 (HCV replicon genotype 1b): 7.08 nM

From patent publication US9364482B2, “Substituted benzofuran compounds and methods of use thereof for the treatment of viral diseases” (priority 2013, dated 2016)
